Data taken from patent US20240423950A1, “5-MAPB OR 6-APB FOR USE IN DRUG-ASSISTED PSYCHOTHERAPY” (CLEARMIND MEDICINE INC., priority 2021, published 2024).

What was measured:
human subjects = assay: Drug-assisted psychotherapy in individuals for whom MDMA therapy is ineffective; assay type: in vivo
Excerpt: Inter alia, 5-MAPB or 6-APB-assisted psychotherapy is effective in post-traumatic stress disorder (PTSD) therapy, couple's therapy, and therapy for anxiety disorders.

[1] = animal models, after oral ingestion; cited from earlier work

SMILES	therapeutic efficacy in the psychotherapeutic context (human subjects)	apparent plasma half-life [1]
CNC(C)Cc1ccc2occc2c1 (stereo not shown) [5-MAPB, 1-(Benzofuran-5-yl)-N-methylpropan-2-amine]	significant enhancement of therapeutic efficacy	approximately 1 hour
CC(N)Cc1ccc2ccoc2c1 (stereo not shown) [6-APB, 1-Benzofuran-6-yl propan-2-amine]	significant enhancement of therapeutic efficacy	approximately 1 hour
